{"source": "ChEMBL document CHEMBL3045456", "about": "“Biological Activity of Carpropamid (KTU 3616)” (1997)", "key": {"[1]": {"system": "Phytophthora nicotianae", "assay": "Antifungal activity against Phytophthora nicotianae var. parasitica assessed as growth inhibition after 2 to 7 days", "type": "functional", "settings": "read-out: ED50 (the source's name)"}, "[2]": {"system": "Bipolaris oryzae", "assay": "Antifungal activity against Bipolaris oryzae assessed as colony color change after 2 to 7 days", "type": "functional, organism-based"}, "[3]": {"system": "Pectobacterium carotovorum", "assay": "Antibacterial activity against Pectobacterium carotovorum assessed as growth inhibition after 2 days", "type": "functional", "settings": "48 h, read-out: ED50 (the source's name)"}, "[4]": {"system": "Xanthomonas campestris pv. oryzae", "assay": "Antibacterial activity against Xanthomonas campestris pv. oryzae assessed as colony color change after 2 days", "type": "functional, organism-based"}, "[5]": {"system": "Pyricularia oryzae", "assay": "Antifungal activity against Magnaporthe oryzae assessed as growth inhibition after 2 to 7 days", "type": "functional", "settings": "read-out: ED50 (the source's name)"}, "[6]": {"system": "Thanatephorus cucumeris", "assay": "Antifungal activity against Thanatephorus cucumeris assessed as growth inhibition after 2 to 7 days", "type": "functional", "settings": "read-out: ED50 (the source's name)"}, "[7]": {"system": "Colletotrichum lagenaria", "assay": "Antifungal activity against Colletotrichum lagenaria assessed as colony color change after 2 to 7 days", "type": "functional, organism-based"}, "[8]": {"system": "Penicillium digitatum", "assay": "Antifungal activity against Penicillium digitatum assessed as colony color change after 2 to 7 days", "type": "functional, organism-based"}, "[9]": {"system": "Pyricularia oryzae", "assay": "Inhibition of spore germination in Magnaporthe oryzae up to 40 ppm after 24 hr", "type": "functional, organism-based"}, "[10]": {"system": "Verticillium dahliae", "assay": "Antifungal activity against Verticillium dahliae assessed as colony color change after 2 to 7 days", "type": "functional, organism-based"}, "[11]": {"system": "Pyricularia grisea", "assay": "Inhibition of Magnaporthe grisea infection of rice plant at 0.01 % sprayed onto inoculated rice seedlings at every 2 hr from 2 to 12 hr after inoculation measured after 6 hr", "type": "functional, organism-based"}, "[12]": {"system": "Pythium", "assay": "Antifungal activity against Pythium sp. assessed as growth inhibition after 2 to 7 days", "type": "functional", "settings": "read-out: ED50 (the source's name)"}, "[13]": {"system": "Sclerotinia sclerotiorum", "assay": "Antifungal activity against Sclerotinia sclerotiorum assessed as growth inhibition after 2 to 7 days", "type": "functional", "settings": "read-out: ED50 (the source's name)"}, "[14]": {"system": "Pectobacterium carotovorum", "assay": "Antibacterial activity against Pectobacterium carotovorum assessed as colony color change after 2 days", "type": "functional, organism-based"}, "[15]": {"system": "Penicillium digitatum", "assay": "Antifungal activity against Penicillium digitatum assessed as growth inhibition after 2 to 7 days", "type": "functional", "settings": "read-out: ED50 (the source's name)"}, "[16]": {"system": "Alternaria brassicicola", "assay": "Antifungal activity against Alternaria brassicicola assessed as colony color change after 2 to 7 days", "type": "functional, organism-based"}, "[17]": {"system": "Nakataea oryzae", "assay": "Antifungal activity against Magnaporthe salvinii assessed as growth inhibition after 2 to 7 days", "type": "functional", "settings": "read-out: ED50 (the source's name)"}, "[18]": {"system": "Fusarium fujikuroi", "assay": "Antifungal activity against Fusarium fujikuroi assessed as colony color change after 2 to 7 days", "type": "functional, organism-based"}, "[19]": {"system": "Pyricularia oryzae", "assay": "Inhibition of dark brown pigmentation formation in appressorium cells of Magnaporthe oryzae at > 0.1 ppm after 24 hr", "type": "functional, organism-based"}, "[20]": {"system": "Cytospora ceratosperma", "assay": "Antifungal activity against Valsa ceratosperma assessed as growth inhibition after 2 to 7 days", "type": "functional", "settings": "read-out: ED50 (the source's name)"}, "[21]": {"system": "Pseudomonas", "assay": "Antibacterial activity against Pseudomonas lachrymans assessed as colony color change after 2 days", "type": "functional, organism-based"}, "[22]": {"system": "Pythium", "assay": "Antifungal activity against Pythium sp. assessed as colony color change after 2 to 7 days", "type": "functional, organism-based"}, "[23]": {"system": "Bipolaris oryzae", "assay": "Antifungal activity against Bipolaris oryzae assessed as growth inhibition after 2 to 7 days", "type": "functional", "settings": "read-out: ED50 (the source's name)"}, "[24]": {"system": "Pyricularia grisea", "assay": "Inhibition of Magnaporthe grisea infection of rice plant at 0.01 % sprayed onto inoculated rice seedlings at every 2 hr from 2 to 12 hr after inoculation measured after 8 hr", "type": "functional, organism-based"}, "[25]": {"system": "Botryosphaeria kuwatsukai", "assay": "Antifungal activity against Botryosphaeria berengeriana f.sp. pyricola assessed as colony color change after 2 to 7 days", "type": "functional, organism-based"}, "[26]": {"system": "Botryosphaeria kuwatsukai", "assay": "Antifungal activity against Botryosphaeria berengeriana f.sp. pyricola assessed as growth inhibition after 2 to 7 days", "type": "functional", "settings": "read-out: ED50 (the source's name)"}, "[27]": {"system": "Fusarium oxysporum f. sp. lycopersici", "assay": "Antifungal activity against Fusarium oxysporum f. sp. lycopersici assessed as colony colour change after 2 to 7 days", "type": "functional, organism-based"}, "[28]": {"system": "Fusarium oxysporum f. sp. lycopersici", "assay": "Antifungal activity against Fusarium oxysporum f. sp. lycopersici assessed as growth inhibition after 2 to 7 days", "type": "functional", "settings": "read-out: ED50 (the source's name)"}, "[29]": {"system": "Pyricularia grisea", "assay": "Inhibition of Magnaporthe grisea infection of rice plant at 0.01 % sprayed onto inoculated rice seedlings at every 2 hr from 2 to 12 hr after inoculation measured after 10 hr", "type": "functional, organism-based"}, "[30]": {"system": "Botrytis cinerea", "assay": "Antifungal activity against Botryotinia fuckeliana assessed as colony color change after 2 to 7 days", "type": "functional, organism-based"}, "[31]": {"system": "Cytospora ceratosperma", "assay": "Antifungal activity against Valsa ceratosperma assessed as colony color change after 2 to 7 days", "type": "functional, organism-based"}, "[32]": {"system": "Fusarium fujikuroi", "assay": "Antifungal activity against Fusarium fujikuroi assessed as growth inhibition after 2 to 7 days", "type": "functional", "settings": "read-out: ED50 (the source's name)"}, "[33]": {"system": "Pseudomonas", "assay": "Antibacterial activity against Pseudomonas lachrymans assessed as growth inhibition after 2 days", "type": "functional", "settings": "48 h, read-out: ED50 (the source's name)"}, "[34]": {"system": "Thanatephorus cucumeris", "assay": "Antifungal activity against Thanatephorus cucumeris assessed as colony color change after 2 to 7 days", "type": "functional, organism-based"}, "[35]": {"system": "Nakataea oryzae", "assay": "Antifungal activity against Magnaporthe salvinii assessed as colony color change after 2 to 7 days", "type": "functional, organism-based"}, "[36]": {"system": "Alternaria brassicicola", "assay": "Antifungal activity against Alternaria brassicicola assessed as growth inhibition after 2 to 7 days", "type": "functional", "settings": "read-out: ED50 (the source's name)"}, "[37]": {"system": "Botrytis cinerea", "assay": "Antifungal activity against Botryotinia fuckeliana assessed as growth inhibition after 2 to 7 days", "type": "functional", "settings": "read-out: ED50 (the source's name)"}, "[38]": {"system": "Verticillium dahliae", "assay": "Antifungal activity against Verticillium dahliae assessed as growth inhibition after 2 to 7 days", "type": "functional", "settings": "read-out: ED50 (the source's name)"}, "[39]": {"system": "Xanthomonas campestris pv. oryzae", "assay": "Antibacterial activity against Xanthomonas campestris pv. oryzae assessed as growth inhibition after 2 days", "type": "functional", "settings": "48 h, read-out: ED50 (the source's name)"}, "[40]": {"system": "Pyricularia oryzae", "assay": "Inhibition of appressorium formation in Magnaporthe oryzae up to 40 ppm after 24 hr", "type": "functional, organism-based"}, "[41]": {"system": "Colletotrichum lagenaria", "assay": "Antifungal activity against Colletotrichum lagenaria assessed as growth inhibition after 2 to 7 days", "type": "functional", "settings": "read-out: ED50 (the source's name)"}, "[42]": {"system": "Sclerotinia sclerotiorum", "assay": "Antifungal activity against Sclerotinia sclerotiorum assessed as colony color change after 2 to 7 days", "type": "functional, organism-based"}, "[43]": {"system": "Phytophthora nicotianae", "assay": "Antifungal activity against Phytophthora nicotianae var. parasitica assessed as colony color change after 2 to 7 days", "type": "functional, organism-based"}, "[44]": {"system": "Pyricularia oryzae", "assay": "Antifungal activity against Magnaporthe oryzae assessed as colony color change after 2 to 7 days", "type": "functional, organism-based"}}, "note": "The source made the active and inactive calls. The rule behind the calls is not given here.", "data": [{"smiles": "CC[C@]1(C(=O)N[C@H](C)c2ccc(Cl)cc2)[C@H](C)C1(Cl)Cl", "note": "(relative stereo) [trans-Carpropamid]", "values": [{"measurement": "EC50", "setting": "[1]", "value": 50, "unit": "µg/mL"}, {"measurement": "Activity", "setting": "[2]", "value": "Active"}, {"measurement": "EC50", "setting": "[3]", "value": "> 200", "unit": "µg/mL"}, {"measurement": "Activity", "setting": "[4]", "value": "inactive"}, {"measurement": "EC50", "setting": "[5]", "value": "> 200", "unit": "µg/mL"}, {"measurement": "EC50", "setting": "[6]", "value": "> 200", "unit": "µg/mL"}, {"measurement": "Activity", "setting": "[7]", "value": "Active"}, {"measurement": "Activity", "setting": "[8]", "value": "inactive"}, {"measurement": "inhibition", "setting": "[9]", "value": "inactive"}, {"measurement": "Activity", "setting": "[10]", "value": "Active"}, {"measurement": "inhibition", "setting": "[11]", "value": "Active"}, {"measurement": "EC50", "setting": "[12]", "value": 200, "unit": "µg/mL"}, {"measurement": "EC50", "setting": "[13]", "value": "> 200", "unit": "µg/mL"}, {"measurement": "Activity", "setting": "[14]", "value": "inactive"}, {"measurement": "EC50", "setting": "[15]", "value": "> 200", "unit": "µg/mL"}, {"measurement": "Activity", "setting": "[16]", "value": "Active"}, {"measurement": "EC50", "setting": "[17]", "value": "> 200", "unit": "µg/mL"}, {"measurement": "Activity", "setting": "[18]", "value": "inactive"}, {"measurement": "inhibition", "setting": "[19]", "value": "inactive"}, {"measurement": "EC50", "setting": "[20]", "value": "> 200", "unit": "µg/mL"}, {"measurement": "Activity", "setting": "[21]", "value": "inactive"}, {"measurement": "Activity", "setting": "[22]", "value": "inactive"}, {"measurement": "EC50", "setting": "[23]", "value": "> 200", "unit": "µg/mL"}, {"measurement": "inhibition", "setting": "[24]", "value": "inactive"}, {"measurement": "Activity", "setting": "[25]", "value": "Active"}, {"measurement": "EC50", "setting": "[26]", "value": "> 200", "unit": "µg/mL"}, {"measurement": "Activity", "setting": "[27]", "value": "inactive"}, {"measurement": "EC50", "setting": "[28]", "value": "> 200", "unit": "µg/mL"}, {"measurement": "inhibition", "setting": "[29]", "value": "inactive"}, {"measurement": "Activity", "setting": "[30]", "value": "inactive"}, {"measurement": "Activity", "setting": "[31]", "value": "Active"}, {"measurement": "EC50", "setting": "[32]", "value": "> 200", "unit": "µg/mL"}, {"measurement": "EC50", "setting": "[33]", "value": "> 200", "unit": "µg/mL"}, {"measurement": "Activity", "setting": "[34]", "value": "Active"}, {"measurement": "Activity", "setting": "[35]", "value": "Active"}, {"measurement": "EC50", "setting": "[36]", "value": "> 200", "unit": "µg/mL"}, {"measurement": "EC50", "setting": "[37]", "value": "> 200", "unit": "µg/mL"}, {"measurement": "EC50", "setting": "[38]", "value": "> 200", "unit": "µg/mL"}, {"measurement": "EC50", "setting": "[39]", "value": "> 200", "unit": "µg/mL"}, {"measurement": "inhibition", "setting": "[40]", "value": "inactive"}, {"measurement": "EC50", "setting": "[41]", "value": "> 200", "unit": "µg/mL"}, {"measurement": "Activity", "setting": "[42]", "value": "inactive"}, {"measurement": "Activity", "setting": "[43]", "value": "inactive"}, {"measurement": "Activity", "setting": "[44]", "value": "Active"}]}]}
